How the values were obtained:
ribonuclease = assay: Standard activity assay of ribonuclease liberated from the CO2-processed polymer extrudate; assay type: biochemical; conditions: Example 5: poly(D,L-lactic acid) MW 71,000 : enzyme ca. 20:1 w/w, CO2 ca. 35° C., 300 bar; compared to ribonuclease that has not undergone processing
Method: (§1) Poly(D,L-lactic acid) (MW 71,000) and ribonuclease enzyme powder are added to a high pressure autoclave at a defined ratio (ca. 20:1 weight for weight). The autoclave is charged with carbon dioxide at a defined temperature and pressure (ca. 35° C., 300 bar) sufficient to ensure plasticization of the polymer by carbon dioxide and the contents are mixed together. Discharging of the contents into a second autoclave at atmospheric pressure, through a longer angled nozzle, yields a solid fibrous-mesh product, containing ribonuclease, of similar morphology to Example 1. Upon liberation from the polymer the biological activity of ribonuclease is unaffected by the carbon dioxide processing compared to ribonuclease that has not undergone processing. Standard activity assays described in the literature are used to determine the ribonuclease activity.

lysozyme = assay: Standard activity assay of lysozyme liberated from the CO2-processed polymer extrudate; assay type: biochemical; conditions: Example 6: poly(D,L-lactic acid) MW 71,000 : enzyme ca. 20:1 w/w, CO2 ca. 35° C., 300 bar; compared to lysozyme that has not undergone processing
Method: as §1, with “lysozyme” for “ribonuclease”, “lysozyme,” for “ribonuclease,”

ribonuclease was tested, and the “biological activity of ribonuclease upon liberation from the polymer” value (ribonuclease) was “unaffected”.

In the case of lysozyme, the “biological activity of lysozyme upon liberation from the polymer” value (lysozyme) is reported as “unaffected”.
